# Measured values reported in patent US4699898A, “Tripeptides affecting immune response” (Imreg, Inc., priority 1985, dated 1987).
# Residues, ends and D or L forms follow the SMILES beside them.
# Tested on: dermal reaction to tetanus toxoid antigen
# Details: in vivo
structure (smiles),measurement,value
"N[C@@H](Cc1ccc(O)cc1)C(=O)NCC(=O)NCC(=O)O [TGG, Tyr-Gly-Gly] (H-Tyr-Gly-Gly-OH)",Dermal reaction without antigen,No reaction was observed
